Molecules are shown by their SMILES.

Common to all, as to assay type: biochemical
One assay addresses T1, CALBL (Moesziomyces antarcticus, UniProt P41365).
T1 construct: purchased Novozymes, Bagsvaerd, Denmark Novozym CALB L
T1 sequence (P41365 26-342): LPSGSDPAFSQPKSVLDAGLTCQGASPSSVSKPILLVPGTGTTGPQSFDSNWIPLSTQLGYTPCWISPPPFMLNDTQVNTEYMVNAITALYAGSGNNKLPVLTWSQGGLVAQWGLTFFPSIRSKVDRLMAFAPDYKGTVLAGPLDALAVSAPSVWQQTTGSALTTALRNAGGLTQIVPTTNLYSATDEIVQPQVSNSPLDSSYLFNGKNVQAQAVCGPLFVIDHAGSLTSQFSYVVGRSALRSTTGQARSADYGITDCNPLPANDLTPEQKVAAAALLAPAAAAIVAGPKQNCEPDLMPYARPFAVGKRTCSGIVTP
The assay is described as follows: Small molecule inhibitors, EA content of latex containing CALBL. Set-up: EA content (column not headed): unit not given here. The note with it: for Effect of low inhibitor levels on enzyme activity (in words) / EA content (column not headed): CALBL 6 ppm; for Effect of low inhibitor levels on enzyme activity (in words): inhibitor as low as 0.01% or even 0.001% (solid on wet latex); for Inhibition of the carboxylesterase enzyme (in words): CALBL 60 ppm, inhibitor 1.0%; for EA content (column not headed): latex. How it is done:
(§1) In another embodiment, deactivation of the carboxylesterase enzyme may be achieved by the addition of a small molecule inhibitor, as shown for CALBL and N51032 in Tables 13 and 14, below. […] The small molecule inhibitor and CALBL were added simultaneously at the time t=0. In the following tables, the potential small molecule inhibitors are as follows: • PBA—phenylboronic acid • S-1-DS—Sodium 1-decane-sulfonate • NPB—Neopentylboronic acid • 2MPB—(2-methylpropyl)boronic acid • CBA—cyclohexylboronic acid
(§2) Again, optimization of the level of use for PBA and 2MPB in the latex is explored below, in Tables 15 and 16, respectively, by the same procedure.

The subject of assay [1] is N51032. The assay is described as follows: Small molecule inhibitors, EA content of latex containing N51032. Particulars: N51032 50 ppm; inhibitor 1%. How it is done:
as §1
The small molecule inhibitors are added at 1% by weight of solids on weight of wet latex (at the same time as the esterase).
as §2

Assay [2] deals with N51032. Described as above. Particulars: N51032 5 ppm; for Effect of low inhibitor levels on enzyme activity (in words): inhibitor as low as 0.01% or even 0.001% (solid on wet latex); for EA content (column not headed): latex.

Consider `OB(O)c1ccccc1` [PBA, phenylboronic acid], for which the “Effect of low inhibitor levels on enzyme activity (in words)” value on CALBL and in the assay on N51032 [2] was “sufficient to shut off the enzyme activity” throughout. The “Inhibition of the carboxylesterase enzyme (in words)” value (“Inhibition” below) on CALBL and in the assay with N51032 [1] was “effective in inhibiting the carboxylesterase enzyme” in each case. Moreover, the “EA content (column not headed)” value at CALBL (inhibitor 0.001%, 0 hr) turned out to be 48; on CALBL (inhibitor 0.001%, 120 hr) it was 30; on CALBL (inhibitor 0.001%, 168 hr) it was 25; on CALBL (inhibitor 0.001%, 384 hr), 11; on CALBL (inhibitor 0.001%, 480 hr), 9; on CALBL (inhibitor 0.01%, 0 hr) it was 44. The “EA content (column not headed)” value is 32 at CALBL (inhibitor 0.01%, 120 hr); 26 on CALBL (inhibitor 0.01%, 168 hr); 15 on CALBL (inhibitor 0.01%, 384 hr); 15 on CALBL (inhibitor 0.01%, 480 hr); 39 on CALBL (inhibitor 0.1%, 0 hr); 35 on CALBL (inhibitor 0.1%, 120 hr). Further, the “EA content (column not headed)” value stood at 35 on CALBL (inhibitor 0.1%, 168 hr); 29 at CALBL (inhibitor 0.1%, 384 hr); 29 at CALBL (inhibitor 0.1%, 480 hr); 46 ppm in the assay on N51032 [2] (inhibitor 0.001%, 0 hr); 36 ppm in the assay on N51032 [2] (inhibitor 0.001%, 120 hr); 34 ppm in the assay with N51032 [2] (inhibitor 0.001%, 168 hr). For the same compound, the EA content (column not headed) was determined as 22 ppm with N51032 [2] (inhibitor 0.001%, 384 hr); 19 ppm in the assay with N51032 [2] (inhibitor 0.001%, 480 hr); 45 ppm with N51032 [2] (inhibitor 0.01%, 0 hr); 41 ppm in the assay on N51032 [2] (inhibitor 0.01%, 120 hr); 39 ppm in the assay with N51032 [2] (inhibitor 0.01%, 168 hr); 34 ppm in the assay on N51032 [2] (inhibitor 0.01%, 384 hr). Moreover, the EA content (column not headed) in the assay on N51032 [2] (inhibitor 0.01%, 480 hr) amounted to 34 ppm; with N51032 [2] (inhibitor 0.1%, 0 hr), 46 ppm; in the assay on N51032 [2] (inhibitor 0.1%, 120 hr), 34 ppm; in the assay on N51032 [2] (inhibitor 0.1%, 168 hr), 41 ppm; in the assay on N51032 [2] (inhibitor 0.1%, 384 hr) it was 38 ppm; in the assay on N51032 [2] (inhibitor 0.1%, 480 hr), 39 ppm.
Regarding `OB(O)C1CCCCC1` [CBA, cyclohexylboronic acid], the “Inhibition” value at CALBL is listed as “some ability to inhibit the CALBL enzyme”.
For `CCCCCCCCCCS(=O)(=O)[O-].[Na+]` [Paint S-1-DS, Sodium 1-decane-sulfonate], the “Inhibition” value on CALBL is “some ability to inhibit the CALBL enzyme”.
Same read-out and setting: in the case of `CC(C)(C)CB(O)O` [NPB, Neopentylboronic acid] it was “completely ineffective as an inhibitor”.
In the case of `CC(C)CB(O)O` [Paint 2MPB, (2-methylpropyl)boronic acid], the “Effect of low inhibitor levels on enzyme activity (in words)” value on CALBL and in the assay with N51032 [2] was “sufficient to shut off the enzyme activity” each time. The “Inhibition” value at CALBL is listed as “effective in inhibiting the carboxylesterase enzyme”. Besides, the “EA content (column not headed)” value on CALBL (inhibitor 0.001%, 0 hr) stood at 44; at CALBL (inhibitor 0.001%, 120 hr) it was 32; on CALBL (inhibitor 0.001%, 168 hr), 23; at CALBL (inhibitor 0.001%, 384 hr) it was 10; at CALBL (inhibitor 0.001%, 480 hr) it was 8; on CALBL (inhibitor 0.01%, 0 hr), 43. Moreover, the “EA content (column not headed)” value is 28 on CALBL (inhibitor 0.01%, 120 hr); 24 at CALBL (inhibitor 0.01%, 168 hr); 13 on CALBL (inhibitor 0.01%, 384 hr); 11 on CALBL (inhibitor 0.01%, 480 hr); 43 at CALBL (inhibitor 0.1%, 0 hr); 34 on CALBL (inhibitor 0.1%, 120 hr). The “EA content (column not headed)” value at CALBL (inhibitor 0.1%, 168 hr) turned out to be 25; on CALBL (inhibitor 0.1%, 384 hr) it was 15; at CALBL (inhibitor 0.1%, 480 hr) it was 13; in the assay on N51032 [2] (inhibitor 0.001%, 0 hr), 42 ppm; in the assay on N51032 [2] (inhibitor 0.001%, 120 hr), 24 ppm; with N51032 [2] (inhibitor 0.001%, 168 hr), 22 ppm. Further, the EA content (column not headed) in the assay with N51032 [2] (inhibitor 0.001%, 384 hr) amounted to 8 ppm; with N51032 [2] (inhibitor 0.001%, 480 hr), 6 ppm; with N51032 [2] (inhibitor 0.01%, 0 hr), 37 ppm; in the assay on N51032 [2] (inhibitor 0.01%, 120 hr) it was 25 ppm; with N51032 [2] (inhibitor 0.01%, 168 hr), 19 ppm; in the assay on N51032 [2] (inhibitor 0.01%, 384 hr) it was 6 ppm. For the same compound, the EA content (column not headed) in the assay with N51032 [2] (inhibitor 0.01%, 480 hr) is 5 ppm; in the assay with N51032 [2] (inhibitor 0.1%, 0 hr) it was 43 ppm; in the assay with N51032 [2] (inhibitor 0.1%, 120 hr), 34 ppm; in the assay on N51032 [2] (inhibitor 0.1%, 168 hr), 27 ppm; with N51032 [2] (inhibitor 0.1%, 384 hr), 22 ppm; with N51032 [2] (inhibitor 0.1%, 480 hr), 20 ppm.
